Reference: patent US10881110B2, “Herbicidal compositions comprising isoxazolo[5,4-b]pyridines” (BASF SE, priority 2014, dated 2021)

How the values were obtained:
Assay in all cases: greenhouse post-emergence herbicidal test
ALOMY = type: in vivo, Alopecurus myosuroides; parameters: key to herbicidal activity against ALOMY found: rating on a scale from 0 to 100; settings: post emergence; application rate a.i.: I.1 250 g/ha, B.193 15 g/ha, alone or as mixture (composition 1.193)
Outline: (§1)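 Herbicidal activity scored on a 0 (no damage) to 100 (plants destroyed) scale, usually 20 days after water-based spraying of 1–15 cm plants grown in loamy sand at 10-25 °C or 20-35 °C depending on species. Components were applied from 10% emulsion concentrates; Colby's E=X+Y−(X·Y/100) gives the additive expectation.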

DIGSA = type: in vivo, Digitaria sanguinalis
Method: (§2) The culture containers used were plastic pots containing medium loamy sand with approximately 4.6% of humus and 69.9% sand as substrate. The seeds of the test plants were sown separately for each species.
(§3) For the post-emergence treatment, the test plants were grown to a plant height of from 1 to 15 cm, depending on the plant habit, and only then treated with the active compounds which had been suspended or emulsified in water. To this end, the test plants were either sown directly, and grown in the same containers, or they were first grown separately as seedlings and transplanted into the test containers a few days prior to treatment.
(§4) Depending on the species, the plants were kept at 10-25° C. and 20-35° C., respectively.
(§5) The test period extended over 1 to 3 weeks. During this time, the plants were tended and their response to the individual treatments was evaluated 20 days after treatment except mentioned otherwise.
(§6) Evaluation was carried out using a scale from 0 to 100. 100 means no emergence of the plants, or complete destruction of at least the above-ground parts, and 0 means no damage or normal course of growth.
(§7) The respective stated components A and B, and, if appropriate, C, were formulated as a 10% by weight strength emulsion concentrate and, with addition of the amount of solvent system, introduced into the spray liquor used for applying the active compound. In the examples, the solvent used was water.
(§8) In the examples below, using the method of S. R. Colby (1967) “Calculating synergistic and antagonistic responses of herbicide combinations”, Weeds 15, p. 22 ff., the value E, which is expected if the activity of the individual active compounds is only additive, was calculated. E=X+Y−(X·Y/100)

ECHCG = type: in vivo, Echinochloa crus-galli; parameters: key to herbicidal activity against ECHCG found / herbicidal activity against ECHCH found: scale 0 to 100; settings: post emergence; application rate a.i.: I.1 250 g/ha, B.193 15 g/ha, alone or as mixture (composition 1.193)
Outline: as §1

GERDI = type: in vivo, Geranium dissectum; parameters: key to herbicidal activity against GERDI found: rating on a scale from 0 to 100; settings: post emergence; application rate a.i.: I.1 250 g/ha, B.193 15 g/ha, alone or as mixture (composition 1.193)
Outline: as §1

ABUTH = type: in vivo, Abutilon theophrast; parameters: key to herbicidal activity against ABUTH found: rating on a scale from 0 to 100; settings: post emergence; a.i. g/ha: I.1 62.5, B.69 25; 20 days after treatment
Outline: as §1

CHEAL = type: in vivo, Chenopodium album
Method: as §2, §3, §4, §5, §6, §7, §8

CONAR = type: in vivo, Convolvulus arvensis; parameters: key: rating on a scale from 0 to 100
Method: as §2, §3, §4, §5, §6, §7, §8

ERICA = type: in vivo, Conyza canadensis; parameters: key to herbicidal activity against ERICA found: rating on a scale from 0 to 100; settings: post emergence
Outline: as §1

GALAP = type: in vivo, Galium aparine; parameters: key to herbicidal activity against GALAP found: rating on a scale from 0 to 100; settings: post emergence
Outline: (§9)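 Post-emergence greenhouse test: plants in loamy sand, sprayed at 1–15 cm height with aqueous spray liquor from 10% emulsion concentrates, kept at 10-25 °C or 20-35 °C by species. Damage scored 0–100 (100 = complete destruction), usually 20 days after treatment. Expected additive effect E from Colby: E=X+Y−(X·Y/100).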

MATCH = type: in vivo, Matricaria recutita; parameters: key to herbicidal activity against MATCH found: rating on a scale from 0 to 100; settings: post emergence
Outline: as §1

LOLMU = type: in vivo, Lolium multiflorum; settings: a.i. g/ha: I.1 62.5, B.77 75, 20 days after treatment
Method: as §2, §3, §4, §5, §6, §7, §8

AMBEL = type: in vivo, Ambrosia artemisiifolia; settings: application rate a.i.: I.1 31.25 g/ha, B.84 (paraquat-dichloride) 17.5 g/ha, alone or as mixture (composition 1.84)
Method: as §2, §3, §4, §5, §6, §7, §8

POLCO = type: in vivo, Polygonum convolvulus; settings: post emergence; application rate a.i.: I.1 62.5 g/ha, B.84 (paraquat-dichloride) 17.5 g/ha, alone or as mixture (composition 1.84)
Outline: as §9

SASKR = type: in vivo, Salsola kali; settings: application rate a.i.: I.1 31.25 g/ha, B.84 (paraquat-dichloride) 17.5 g/ha, alone or as mixture (composition 1.84)
Method: as §2, §3, §4, §5, §6, §7, §8

VIOAR = type: in vivo, Viola arvensis; settings: post emergence, B.84 (paraquat-dichloride) 17.5 g/ha, alone or as mixture (composition 1.84)
Outline: as §9

[1] = a.i. g/ha: I.1 31.25, B.69 25, 20 days after treatment
[2] = a.i. g/ha: I.1 62.5, B.69 25, 20 days after treatment
[3] = a.i. g/ha: I.1 62.5, B.77 75, 20 days after treatment
[4] = a.i. g/ha: I.1 62.5, B.80 250, 20 days after treatment
[5] = a.i. g/ha: I.1 62.5, B.82 31.25, 20 days after treatment
[6] = application rate a.i.: I.1 62.5 g/ha, B.84 (paraquat-dichloride) 17.5 g/ha, alone or as mixture (composition 1.84)
[7] = application rate a.i.: I.1 31.25 g/ha, B.84 (paraquat-dichloride) 17.5 g/ha, alone or as mixture (composition 1.84)

Structure (SMILES): Cc1ccccc1CO[C@H]1C[C@]2(C(C)C)CC[C@@]1(C)O2 (racemic) [B.193]
- herbicidal activity against ALOMY found (ALOMY): 0
- herbicidal activity against DIGSA found (DIGSA; application rate a.i.: I.1 250 g/ha, B.193 15 g/ha, alone or as mixture (composition 1.193)): 20
- herbicidal activity against ECHCG found (ECHCG): 40
- herbicidal activity against GERDI found (GERDI): 40

Structure (SMILES): N#Cc1cc(Br)c(O)c(Br)c1 [B.69, bromoxynil]
- herbicidal activity against ABUTH found (ABUTH): 35%
- herbicidal activity against CHEAL found (CHEAL; [1]): 60%
- herbicidal activity against CHEAL found (CHEAL; [2]): 60%
- herbicidal activity against CONAR found (CONAR; [1]): 50%
- herbicidal activity against CONAR found (CONAR; [2]): 50%
- herbicidal activity against ERICA found (ERICA; [2]): 30%
- herbicidal activity against GALAP found (GALAP; [2]): 50%
- herbicidal activity against MATCH found (MATCH; [1]): 0%

Structure (SMILES): CON(C)C(=O)Nc1ccc(Cl)c(Cl)c1 [B.77, linuron]
- herbicidal activity against CONAR found (CONAR; [3]): 50%
- herbicidal activity against GALAP found (GALAP; [3]): 40%
- herbicidal activity against LOLMU found (LOLMU): 35%

Structure (SMILES): CCC(=O)Nc1ccc(Cl)c(Cl)c1 [B.80, propanil]
- herbicidal activity against CONAR found (CONAR; [4]): 20%
- herbicidal activity against DIGSA found (DIGSA; [4]): 40%
- herbicidal activity against ERICA found (ERICA; [4]): 65%

Structure (SMILES): CCNc1nc(Cl)nc(NC(C)(C)C)n1 [B.82, terbuthylazine]
- herbicidal activity against CHEAL found (CHEAL; [5]): 65%
- herbicidal activity against GALAP found (GALAP; [5]): 55%

Structure (SMILES): C[n+]1ccc(-c2cc[n+](C)cc2)cc1 [B.84, paraquat-dichloride]
- herbicidal activity against AMBEL found (AMBEL): 90
- herbicidal activity against CONAR found (CONAR; [6]): 10
- herbicidal activity against ERICA found (ERICA; [7]): 35
- herbicidal activity against GALAP found (GALAP; [7]): 55
- herbicidal activity against MATCH found (MATCH; [6]): 80
- herbicidal activity against POLCO found (POLCO): 30
- herbicidal activity against SASKR found (SASKR): 70
- herbicidal activity against VIOAR found (VIOAR; application rate a.i.: I.1 31.25 g/ha): 55
- herbicidal activity against VIOAR found (VIOAR; application rate a.i.: I.1 62.5 g/ha): 55
